What was measured:
Toxoplasma gondii = test: MMV: A total of 100ul of inoculum was added to each well (parasite/cell ratio, ~10:1; final volume, 200 ul). Six hours after inoculation, nonadherent parasites were removed, and 100 ul of complete DMEM (1% penicillin-streptomycin, 3% FBS) supplemented with inhibitors at different concentrations (2-fold serial dilutions starting from 30 uM) was added to all except the negative-control wells. Positive controls, consisting of pyrimethamine (PYR) and sulfadiazine (SDZ) (20-mg/ml stocks in DMSO), were tested at a 2mg/ml final concentration. Each test was performed in triplicate.; type: functional, organism-based; details: 6 h
Entamoeba histolytica = test: MMV: Primary screening was performed with each compound at a 30 uM final concentration and in triplicate in sealed 96-well polystyrene microtiter plates. Parasite inocula (100 ul) comprising 20000 parasites/ml were added to each well and grown at 37 degrees C in a humidified atmosphere of 5% CO2 for 72 h. Positive controls consisted of metronidazole at 1 mg/ml. The growth of E. histolytica trophozoites in each well was determined microscopically by measuring the diameters of the confluent cells in drug-containing wells relative to those in the nega- tive-control wells.; type: functional, organism-based

| SMILES | IC50 (Toxoplasma gondii) [µM] | IC50 (Entamoeba histolytica) [µM] |
| --- | --- | --- |
| Cn1c(C(=O)c2cccc3ccccc23)nc2ccccc21 | > 30 | > 30 |
| CCC(c1ccccc1)c1nn2c(-c3cccs3)nnc2s1 (stereo not given) | > 30 | > 30 |
| O=c1nc(C=Cc2ccc(Cl)cc2)oc2ccccc12 | > 30 | > 30 |
| c1ccc2c(NCCCCCCNc3c4c(nc5ccccc35)CCCC4)c3c(nc2c1)CCCC3 | > 30 | > 30 |
| COc1cccc(O)c1CN1CCC2(CCCN(Cc3ccc(F)cc3)C2)C1 (stereo not given) | > 30 | > 30 |
| OC(CNCC1CCCO1)Cn1c2ccc(Cl)cc2c2cc(Cl)ccc21 (stereo not given) | > 30 | > 30 |
| COc1ccc(CCN2C(=O)c3[nH]nc(-c4cc(Cl)c(C)cc4O)c3C2c2ccccc2F)cc1 (stereo not given) | > 30 | > 30 |
| C[n+]1c2ccccc2nc2ccc(NCCO)cc21 | > 30 | > 30 |
| COc1ccc(C(=O)Nc2ccc(Cl)cc2C(=O)Nc2ccncc2)cc1 | > 30 | > 30 |
| Cc1ccc(-c2cc3nc4c(c(O)n3n2)CCCC4)cc1 | 8.22 | > 30 |
| CCc1c(C)c(=N)c2ccccc2n1C | > 30 | > 30 |
| CCOC(=O)C1CCN(C(=O)CN2C(=O)c3ccccc3C2c2c[nH]c3ccccc23)CC1 (stereo not given) | > 30 | > 30 |
| O=C(Nc1cccc(-c2nc3ccccc3[nH]2)c1)c1cccc(NC(=O)c2ccco2)c1 | > 30 | > 30 |
| COc1ccccc1CNC(=O)C1c2ccccc2C(=O)N(CC(C)C)C1c1cccs1 (stereo not given) | > 30 | > 30 |
| O=C1c2ccc3c4c(ccc(c24)C(=O)N1CCCCO)C(=O)N(CCCCO)C3=O | > 30 | > 30 |
| O=C(NC1CCN(Cc2ccccc2)CC1)c1cc(C(=O)NC2CCN(Cc3ccccc3)CC2)cc(C(=O)NC2CCN(Cc3ccccc3)CC2)c1 | > 30 | > 30 |
| Cc1c(C)n(Cc2ccc(F)cc2)c2ccc(C(=O)NCc3ccco3)cc12 | > 30 | > 30 |
| COc1ccc(-c2cn3c(C(=O)Nc4ccccc4Cl)c(-c4ccccc4)c4c3n2CCCC4)cc1 | > 30 | > 30 |

| SMILES | IC50 (Toxoplasma gondii) [µM] | IC50 (Entamoeba histolytica) [µM] |
| --- | --- | --- |
| CC(C)(C)c1ccc(C2CC3=Nc4ccccc4N(C(=O)c4ccccc4Cl)C(c4ccc(F)cc4)C3=C(O)C2)cc1 (stereo not given) | > 30 | > 30 |
| CCOc1ccc2c(c1)CN(Cc1ccc(Cl)cc1)CO2 | > 30 | > 30 |
| COc1cccc(Nc2nc(NCCO)c3ccccc3n2)c1 | > 30 | > 30 |
| CCOc1ccc2nc(C)cc(Nc3ccc(Br)cc3)c2c1 | > 30 | > 30 |
| CC(O)(c1ccc(Cl)cc1)C(CN1CCCCC1)c1ccccc1 (stereo not given) | > 30 | > 30 |
| FC(F)(F)c1cccc(CNC2CCN(CCc3ccccc3)CC2)c1 | > 30 | > 30 |
| COc1ccccc1N1C(=N)SC(=Cc2ccc(OCc3ccccc3F)cc2)C1=O | > 30 | > 30 |
| CCCc1c(CC)c(=N)c2ccccc2n1C | > 30 | > 30 |
| COc1ccccc1CNC(=O)CCn1c(=O)[nH]c2ccsc2c1=O | 20.9 | > 30 |
| O=c1cc(NC2CCN(CCCc3ccccc3)CC2)c2cc(Cl)ccc2o1 | > 30 | > 30 |
| COc1ccc(CNC(=O)c2cc3c(=O)n4ccccc4nc3n(CCc3ccccc3)c2=N)cc1 | > 30 | > 30 |
| CCOc1ccc(CCNC(=O)c2cccs2)cc1OCC | > 30 | > 30 |
| COc1cc(-c2nc(-c3ccccc3)c(-c3ccccc3)[nH]2)cc(OC)c1O | > 30 | > 30 |
| CCOc1ccc(C2N(C)c3ccccc3N2C)cc1 | > 30 | > 30 |
| CC(C)(C)CC(C)(C)NCC(O)COc1ccc2c(c1)CCC2 (stereo not given) | > 30 | > 30 |
| CCCCc1c(C)nc2c(OC)cccc2c1O | > 30 | > 30 |
| CCOC(=O)c1cn(CC)c2cc(N3CCCCC3)c(F)cc2c1=O | > 30 | > 30 |

— ChEMBL document CHEMBL3301448, “MMV Malaria Box screening against Toxoplasma gondii and Entamoeba histolytica”
